Measurements from the supplement of paper PMC10307832.

Key:
Assay in all cases: relative viability (nuclei count vs DMSO), 5 days (fraction); higher = more cells survive
Carboplatin + Pictilisib = compound: C1CC(C1)(C(=O)O)C(=O)O.[NH2-].[NH2-].[Pt+2] [Carboplatin] + CS(=O)(=O)N1CCN(Cc2cc3nc(-c4cccc5[nH]ncc45)nc(N4CCOCC4)c3s2)CC1 [Pictilisib] (partner 1 µM)
Method in brief: (§1)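 One day after seeding in 1536-well plates, lung cancer cell lines were dosed by pin tool. Dosing was either single-drug or a fixed anchor-drug dose plus five library-drug doses (not always all listed) in √10 steps. After 5 days, nuclei were stained in one fix-and-stain step and counted on 4× images, and relative viability is the nuclei count of treated wells over that of vehicle wells, given as the median of duplicate plates.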

MLN4924 + Phenformin = compound: NS(=O)(=O)OC[C@@H]1C[C@@H](n2ccc3c(N[C@H]4CCc5ccccc54)ncnc32)C[C@@H]1O [MLN4924] + N=C(N)NC(=N)NCCc1ccccc1 [Phenformin] (partner 250 µM)
Method in brief: as §1

Carboplatin + Trametinib = compound: C1CC(C1)(C(=O)O)C(=O)O.[NH2-].[NH2-].[Pt+2] [Carboplatin] + CC(=O)Nc1cccc(-n2c(=O)n(C3CC3)c(=O)c3c(Nc4ccc(I)cc4F)n(C)c(=O)c(C)c32)c1 [Trametinib] (partner 0.02 µM)
Method in brief: as §1

GSK126 + Alpelisib = compound: CC[C@H](C)N1C=C(C2=C(C=C(C=C21)C3=CN=C(C=C3)N4CCNCC4)C(=O)NCC5=C(C=C(NC5=O)C)C)C [GSK126] + Cc1nc(NC(=O)N2CCC[C@H]2C(N)=O)sc1-c1ccnc(C(C)(C)C(F)(F)F)c1 [Alpelisib] (partner 2 µM)
Method in brief: as §1

Cell Line	relative viability (Carboplatin + Pictilisib; first compound 0.08 µM)	relative viability (Carboplatin + Pictilisib; first compound 0.253 µM)	relative viability (Carboplatin + Pictilisib; first compound 0.8 µM)	relative viability (Carboplatin + Pictilisib; first compound 2.53 µM)	relative viability (Carboplatin + Pictilisib; first compound 8 µM)	relative viability (MLN4924 + Phenformin; first compound 0.04 µM)	relative viability (MLN4924 + Phenformin; first compound 0.1265 µM)	relative viability (MLN4924 + Phenformin; first compound 0.4 µM)	relative viability (MLN4924 + Phenformin; first compound 1.265 µM)	relative viability (MLN4924 + Phenformin; first compound 4 µM)	relative viability (Carboplatin + Trametinib; first compound 0.08 µM)	relative viability (Carboplatin + Trametinib; first compound 0.253 µM)	relative viability (Carboplatin + Trametinib; first compound 0.8 µM)	relative viability (Carboplatin + Trametinib; first compound 2.53 µM)	relative viability (Carboplatin + Trametinib; first compound 8 µM)	relative viability (GSK126 + Alpelisib; first compound 0.08 µM)	relative viability (GSK126 + Alpelisib; first compound 0.253 µM)	relative viability (GSK126 + Alpelisib; first compound 0.8 µM)	relative viability (GSK126 + Alpelisib; first compound 2.53 µM)	relative viability (GSK126 + Alpelisib; first compound 8 µM)
LXF-289	0.889	0.883	0.8	0.832	0.766	0.491	0.41	0.293	0.163	0.121	0.671	0.717	0.674	0.712	0.656	1.1	1.05	1.02	1.01	1.02
NCI-H23	0.477	0.483	0.481	0.472	0.391	0.764	0.8	0.406	0.341	0.233	0.414	0.425	0.364	0.366	0.389	0.74	0.628	0.565	0.779	0.76
NCI-H322M	0.567	0.465	0.507	0.542	0.521	0.908	0.65	0.473	0.248	0.306	0.543	0.488	0.537	0.552	0.525	0.819	0.836	0.817	0.78	0.737
NCI-H358	0.373	0.366	0.321	0.448	0.376	0.354	0.366	0.171	0.0905	0.0916	0.145	0.148	0.121	0.16	0.14	1.08	1.07	0.857	0.935	0.904
NCI-H441	0.56	0.588	0.414	0.492	0.433	0.79	0.554	0.333	0.211	0.227	0.556	0.448	0.479	0.467	0.371	0.756	0.717	0.76	0.566	0.753
NCI-H460	0.379	0.356	0.352	0.321	0.213	0.548	0.448	0.496	0.0336	0.0252	0.161	0.139	0.155	0.0949	0.0458	0.673	0.486	0.369	0.504	0.431
NCI-H520	0.357	0.227	0.27	0.297	0.258	0.566	0.439	0.429	0.265	0.238	0.856	0.812	0.724	0.766	0.484	0.946	0.758	0.931	0.864	0.783
NCI-H596	0.455	0.36	0.389	0.333	0.373	0.751	0.914	–	0.835	0.763	0.846	0.845	0.722	0.645	0.518	0.681	0.445	0.397	0.51	0.556
NCI-H647	0.572	0.477	0.368	0.482	0.429	0.367	0.348	0.118	0.0487	0.0541	0.533	0.483	0.413	0.469	0.457	1.33	1.34	1.1	1.05	0.919
NCI-H650	0.948	1.03	0.826	0.791	0.562	0.355	0.287	0.224	0.197	0.199	1.01	1.08	1	0.849	0.818	1.24	1.11	1.17	1.23	0.993
NCI-H661	0.431	0.393	0.368	0.34	0.402	0.289	0.329	0.294	0.286	0.234	0.58	0.547	0.591	0.554	0.539	0.802	0.638	0.657	0.478	0.58
NCI-H727	0.348	0.512	0.314	0.29	0.352	0.827	0.438	0.278	0.292	0.33	0.391	0.4	0.349	0.376	0.392	0.649	0.493	0.643	0.636	0.704
NCI-H838	0.476	0.391	0.469	0.454	0.485	0.538	0.319	0.263	0.127	0.128	0.558	0.519	0.536	0.515	0.541	1.12	0.982	0.866	0.845	0.809
NCI-H1355	0.394	0.537	0.461	0.431	0.454	0.42	0.407	0.352	0.218	0.235	0.45	0.438	0.474	0.403	0.367	0.935	0.836	0.762	0.876	0.901
NCI-H1395	0.722	0.548	0.854	0.548	0.513	0.447	0.499	0.481	0.382	0.357	1.05	1.03	1.01	0.742	0.618	1.12	0.937	1.08	1.2	1.03
NCI-H1437	0.433	0.401	0.414	0.381	0.413	0.325	0.337	0.388	0.258	0.195	0.487	0.518	0.452	0.463	0.5	1.07	0.934	0.869	0.824	0.993

Cell Line	relative viability (Carboplatin + Pictilisib; first compound 0.08 µM)	relative viability (Carboplatin + Pictilisib; first compound 0.253 µM)	relative viability (Carboplatin + Pictilisib; first compound 0.8 µM)	relative viability (Carboplatin + Pictilisib; first compound 2.53 µM)	relative viability (Carboplatin + Pictilisib; first compound 8 µM)	relative viability (MLN4924 + Phenformin; first compound 0.04 µM)	relative viability (MLN4924 + Phenformin; first compound 0.1265 µM)	relative viability (MLN4924 + Phenformin; first compound 0.4 µM)	relative viability (MLN4924 + Phenformin; first compound 1.265 µM)	relative viability (MLN4924 + Phenformin; first compound 4 µM)	relative viability (Carboplatin + Trametinib; first compound 0.08 µM)	relative viability (Carboplatin + Trametinib; first compound 0.253 µM)	relative viability (Carboplatin + Trametinib; first compound 0.8 µM)	relative viability (Carboplatin + Trametinib; first compound 2.53 µM)	relative viability (Carboplatin + Trametinib; first compound 8 µM)	relative viability (GSK126 + Alpelisib; first compound 0.08 µM)	relative viability (GSK126 + Alpelisib; first compound 0.253 µM)	relative viability (GSK126 + Alpelisib; first compound 0.8 µM)	relative viability (GSK126 + Alpelisib; first compound 2.53 µM)	relative viability (GSK126 + Alpelisib; first compound 8 µM)
NCI-H1651	0.681	0.498	0.644	0.452	0.411	0.347	0.317	0.313	0.171	0.157	0.851	0.77	0.826	0.771	0.711	1.13	0.946	0.933	0.938	0.936
NCI-H1666	0.527	0.561	0.404	0.403	0.389	0.509	0.453	0.449	0.265	0.337	0.914	0.848	0.85	0.813	0.787	1	0.964	1.05	0.962	1.12
NCI-H1734	0.51	0.47	0.487	0.451	0.424	0.339	0.44	0.229	0.118	0.122	0.69	0.718	0.659	0.637	0.501	0.789	0.605	0.654	0.698	0.682
NCI-H1755	0.432	0.442	0.407	0.417	0.391	0.605	0.534	0.332	0.228	0.23	0.823	0.78	0.752	0.82	0.7	0.927	0.974	0.951	0.866	0.883
NCI-H1792	0.327	0.261	0.236	0.22	0.246	0.403	0.324	0.725	0.258	0.217	0.514	0.395	0.354	0.361	0.231	0.703	0.77	0.78	0.761	0.636
NCI-H1793	0.396	0.345	0.316	0.382	0.329	0.292	0.367	0.313	0.224	0.183	0.39	0.455	0.48	0.386	0.431	0.968	0.783	0.548	0.511	0.766
NCI-H1915	0.938	0.929	0.919	0.85	0.588	0.347	0.33	0.291	0.179	0.211	0.325	0.29	0.296	0.288	0.257	1.16	1.05	1.08	1.05	1.09
NCI-H1944	0.338	0.321	0.336	0.327	0.342	0.22	0.187	0.173	0.112	0.122	0.439	0.419	0.439	0.362	0.338	0.92	0.858	0.839	0.843	0.947
NCI-H1975	0.324	0.305	0.306	0.315	0.302	0.418	0.479	0.494	0.328	0.184	0.329	0.391	0.33	0.371	0.388	0.741	0.649	0.607	0.643	0.616
NCI-H1993	0.805	0.891	0.745	0.869	0.811	0.535	0.579	0.528	0.468	0.487	0.564	0.51	0.561	0.404	0.497	0.632	0.72	0.773	0.748	0.661
NCI-H2009	0.825	0.816	0.761	0.79	0.558	0.24	0.184	0.156	0.0904	0.0791	0.346	0.295	0.243	0.249	0.238	1.26	1.16	1.17	1.13	1.14
NCI-H2023	0.262	0.27	0.261	0.192	0.171	0.392	0.393	0.175	0.0707	0.0769	0.599	0.633	0.542	0.343	0.163	0.635	0.641	0.588	0.677	0.571
NCI-H2085	0.525	0.502	0.477	0.458	0.399	0.754	0.676	0.598	0.443	0.348	0.498	0.558	0.512	0.518	0.527	1.07	0.912	1	0.906	0.995
NCI-H2087	0.968	0.868	0.859	0.826	0.504	0.442	0.349	0.298	0.0782	0.0942	0.242	0.257	0.171	0.198	0.175	0.993	1.21	1.26	0.919	1.05
NCI-H2126	0.47	0.516	0.518	0.511	0.452	0.566	0.566	0.432	0.321	0.304	0.586	0.613	0.562	0.614	0.536	0.789	0.749	0.753	0.737	0.811
NCI-H2170	0.361	0.266	0.357	0.33	0.283	0.359	0.305	0.214	0.183	0.185	0.911	1.02	0.966	0.814	0.717	0.932	0.852	0.839	0.795	0.745
